Where a name gives a salt, the structure may show the parent alone.
How the values were obtained:
α receptors (α2:α1) = conditions: affinity ratio; cited from earlier work
pupil = test: Pupil dilation measured with Neuroptics pupillometer after α-2 agonist pre-treatment and/or phenylephrine; assay type: in vivo, human; conditions: for Pupil size, Treated eye / Surgical Work area, Treated eye / Pupil size, Non-treated eye / Surgical Work area, Non-treated eye: photopic conditions (1258.925 lux) after dilation with phenylephrine 10%; for Pupil size, Non-treated eye / Surgical Work area, Non-treated eye: eye without pre-treatment
Experimental: Dilation medication used was Phenylephrine hydrochloride 10% (Akorn, Inc). Pupillometer used was a Neuroptics DP-2000 Binocular Pupillometer).
Dilation using phenylephrine hydrochloride 10% was conducted in both eyes of the test subject to use as a control against the other compounds being tested.
After this, dilation using phenylephrine hydrochloride 2.5% or phenylephrine hydrochloride 10% was conducted to investigate the effects of the compound on pupil dilation.
Apracionidine 0.5% was administered in the right eye of the test subject three (3) times a day for 4 days. After this, dilation using phenylephrine hydrochloride 10% was conducted to investigate the effects of the compound on pupil dilation.
After this, dilation using phenylephrine hydrochloride 10% was conducted to investigate the effects of the compound on pupil dilation.
A washout period of multiple months was undertaken in between each experiment.
Pupil measurements were obtained using a Neuroptics pupillometer. Parameters were as follows: Scotopic conditions for 1 second, followed by photopic conditions for 4 seconds (1258.925 lux), followed by scotopic conditions for 10 seconds. This allowed for investigation of scotopic pupil size, photopic pupil size, and scotopic pupil size recovery after the light stimulus concluded.
The pupils of the subject's pretreated right eye and untreated control left eye were then measured under both scotopic and photopic conditions for baseline measurements (FIG. 6A). Photopic conditions consisted of a 4 second window where a light was shining in both eyes simultaneously. […]
The experiment was repeated at a higher dosage wherein the subject was administered a second ophthalmic formulation containing 10% phenylephrine to both eyes. 30 minutes after instillation of 10% phenylephrine, the pupils of the subject were then measured under both scotopic and photopic conditions (FIG. 6C). […] Because the area of a circle is dependent on the radius squared (area of a circle=πr^2), the increase in area that is created from a increasing the pupil dilation size is not linear.
The results were then compared.

[1] = after pre-treatment of right eye only, 3 times a day for 4 days, before phenylephrine
[2] = after pre-treatment of right eye only, 3 times a day for 4 days, before phenylephrine, left eye not treated
[3] = dilation pre and post treatment with α 2 agonist: treated eye vs control measurements of same eye
[4] = non-treated eye dilation compared to treated eye dilation
[5] = right eye pre-treated 3 times a day for 4 days, then phenylephrine 10% both eyes
[6] = right eye pre-treated 3 times a day for 4 days, then phenylephrine 10% both eyes, left eye not pre-treated
[7] = phenylephrine hydrochloride 10% both eyes, no pre-treatment (FIG. 5B)

## Cc1cccc([C@H](C)c2cnc[nH]2)c1C [Dexmedetomidine, dexmedetomidine]
α receptors (α2:α1)
  α2:α1 affinity: 1620
pupil; after dilation with phenylephrine hydrochloride 10%
  increase of surgical work area compared to the pre-treatment control dilation amount in the same eye: +220%
pupil; [1]
  CH LStim Ave: 64%
  CH RPupil Ave: 64%
  CH RStim Ave: 64%
  CH Right: 64%
  CLAT LStim Ave: 0.36 s
  CLAT RPupil Ave: 0.38 s
  CLAT RStim Ave: 0.36 s
  CLAT Right: 0.38 s
  DELTA LStim Ave: 4.01 mm
  DELTA RPupil Ave: 4.19 mm
  DELTA RStim Ave: 4.01 mm
  DV LStim Ave: 0.95 mm/s
  DV RPupil Ave: 0.96 mm/s
  DV RStim Ave: 0.95 mm/s
  DV Right: 0.96 mm/s
  MCV LStim Ave: 5.42 mm/s
  MCV RPupil Ave: 5.84 mm/s
  MCV RStim Ave: 5.42 mm/s
  Max LStim Ave: 6.30 mm
  Max RStim Ave: 6.30 mm
  Max Right: 6.57 mm
  Min LStim Ave: 2.29 mm
  Min RPupil Ave: 2.38 mm
  Min RStim Ave: 2.29 mm
  Min Right: 2.38 mm
pupil; [2]
  CH LPupil Ave: 64%
  CH Left: 64%
  CLAT LPupil Ave: 0.34 s
  CLAT Left: 0.34 s
  DELTA Left: 3.83 mm
  DV Left: 0.94 mm/s
  MCV Left: 4.99 mm/s
  Max Left: 6.03 mm
  Min Left: 2.20 mm
pupil; [3]
  Pupil size change (%): +78.83%
  Surgical work area change (%): +219.8%
pupil; [4]
  Pupil size change (%): +74.46%
  Surgical work area (%): +204.4%
pupil
  Pupil size, Treated eye: 6.42 mm
  Surgical Work area, Treated eye: 32.35 mm^2
  Pupil size, Non-treated eye: 3.68 mm
  Surgical Work area, Non-treated eye: 10.63 mm^2
pupil; [5]
  CH LStim Ave: 46%
  CH RPupil Ave: 34%
  CH RStim Ave: 46%
  CH Right: 34%
  CLAT LStim Ave: 0.20 s
  CLAT RPupil Ave: 0.16 s
  CLAT RStim Ave: 0.20 s
  CLAT Right: 0.16 s
  DELTA LStim Ave: 4.22 mm
  DELTA RPupil Ave: 3.31 mm
  DELTA RStim Ave: 4.22 mm
  DV LStim Ave: 0.94 mm/s
  DV RPupil Ave: 0.80 mm/s
  DV RStim Ave: 0.94 mm/s
  DV Right: 0.80 mm/s
  MCV LStim Ave: 3.24 mm/s
  MCV RPupil Ave: 2.49 mm/s
  MCV RStim Ave: 3.24 mm/s
  Max LStim Ave: 9.27 mm
  Max RStim Ave: 9.27 mm
  Max Right: 9.73 mm
  Min LStim Ave: 5.05 mm
  Min RPupil Ave: 6.42 mm
  Min RStim Ave: 5.05 mm
  Min Right: 6.42 mm
pupil; [6]
  CH LPupil Ave: 58%
  CH Left: 58%
  CLAT LPupil Ave: 0.24 s
  CLAT Left: 0.24 s
  DELTA Left: 5.13 mm
  DV Left: 1.08 mm/s
  MCV Left: 4.00 mm/s
  Max Left: 8.81 mm
  Min Left: 3.68 mm

## CNC[C@H](O)c1cccc(O)c1 [Phenylephrine hydrochloride 10%, phenylephrine]
pupil; [7]
  CH LPupil Ave: 58%
  CH LStim Ave: 57%
  CH Left: 58%
  CH RPupil Ave: 56%
  CH RStim Ave: 57%
  CH Right: 56%
  CLAT LPupil Ave: 0.24 s
  CLAT LStim Ave: 0.22 s
  CLAT Left: 0.24 s
  CLAT RPupil Ave: 0.20 s
  CLAT RStim Ave: 0.22 s
  CLAT Right: 0.20 s
  DELTA LStim Ave: 4.63 mm
  DELTA Left: 4.65 mm
  DELTA RPupil Ave: 4.62 mm
  DELTA RStim Ave: 4.63 mm
  DV LStim Ave: 1.43 mm/s
  DV Left: 1.40 mm/s
  DV RPupil Ave: 1.45 mm/s
  DV RStim Ave: 1.43 mm/s
  DV Right: 1.45 mm/s
  MCV LStim Ave: 4.62 mm/s
  MCV Left: 4.78 mm/s
  MCV RPupil Ave: 4.46 mm/s
  MCV RStim Ave: 4.62 mm/s
  Max LStim Ave: 8.11 mm
  Max Left: 8.01 mm
  Max RStim Ave: 8.11 mm
  Max Right: 8.21 mm
  Min LStim Ave: 3.48 mm
  Min Left: 3.36 mm
  Min RPupil Ave: 3.59 mm
  Min RStim Ave: 3.48 mm
  Min Right: 3.59 mm
pupil
  Pupil size, Treated eye: 3.59 mm
  Surgical Work area, Treated eye: 10.12 mm^2
  Pupil size, Non-treated eye: 3.36 mm
  Surgical Work area, Non-treated eye: 8.862 mm^2
